Laboratory results published in paper PMC12040169 (PLOS Biology, 2025).

Assay: in vitro
Conditions: human, hela cells, % viability

| Structure (SMILES) | viability at 28.5 h, 10 µM [%] |
| --- | --- |
| Cc1ccc(NC(=O)Cn2cnc3c(-c4ccccc4)csc3c2=O)cc1 [CBK287812] | 104 |
| COc1ccc(NC(=O)c2c[nH]c3nc(C)ccc3c2=O)cc1 [CBK287816] | 88.4 |
| COc1ccc(NC(=O)CSc2cc(-n3cccn3)ncn2)cc1 [CBK287819] | 116 |
| Cc1ccc(NC(=O)CSc2cc(-n3nc(C)cc3C)ncn2)cc1 [CBK287820] | 89 |
| CCCCNC(=O)CCn1c(=O)[nH]c2ccccc2c1=O [CBK287824] | 97 |
| CCn1nnc2c(=O)n(CC(=O)Nc3ccccc3)cnc21 [CBK287828] | 85.5 |
| O=C(Nc1nnc(Cc2cccs2)o1)c1ccccc1 [CBK287831] | 83.9 |
| O=C(c1ccc(F)cc1)N1CCN(c2ccc(Nc3ccncc3)nn2)CC1 [CBK287836] | 99.7 |
| Cc1cc(=O)n2c(-c3ccc(NS(=O)(=O)c4cccnc4)cc3)csc2n1 [CBK287837] | 91.6 |
| CCCn1c(C(=O)Nc2cccnc2)cc2c(=O)n(C)c(=O)n(C)c21 [CBK287838] | 90.8 |
| O=S(=O)(c1ccccc1)N1CCN(c2cnccn2)CC1 [CBK287839] | 88.9 |
| COc1ccc(NC(=O)c2csc(Nc3ccccc3)n2)cc1OC [CBK287840] | 83.7 |
| Cc1cc(C)cc(NC(=O)Cc2cc(=O)[nH]c(SCc3ccccc3)n2)c1 [CBK287842] | 112 |
| Cc1nc(-c2nnc(NC(=O)COc3ccc(Cl)cc3Cl)o2)cs1 [CBK287843] | 109 |
| Nc1nc2ccc(-c3nc4ccccc4o3)cc2s1 [CBK287846] | 57.4 |
| CCN1C(=O)CC(n2c(C)nc3ccccc32)C1=O (stereo not drawn) [CBK287847] | 108 |
| Cc1cccc(Nc2ncc(Cc3ccccc3C)s2)n1 [CBK287849] | 94.8 |
| O=C(O)c1cnc2ccc(F)cc2c1N1CCOCC1 [CBK287851] | 82.5 |
| Cc1ccccc1NC(=O)Cn1c(=O)cnc2ccccc21 [CBK287852] | 100 |
| O=c1sc(Nc2ccccc2)nc2ccsc12 [CBK287853] | 91.9 |
| CCc1ccc(Oc2cc(N3CCC(C(=O)NC4CC4)CC3)ncn2)cc1 [CBK287854] | 102 |
| CC(=O)c1cnc2nc(-c3cccnc3)nn2c1C [CBK287859] | 112 |
| CCCCCOc1ccc(C2NC(=O)NC2=O)cc1 (stereo not drawn) [CBK287865] | 89 |

| Structure (SMILES) | viability at 28.5 h, 10 µM [%] |
| --- | --- |
| O=C(CCC1CCCCC1)Nc1c[nH]c(=O)[nH]c1=O [CBK287867] | 90.4 |
| c1ccc(-c2onc3cc4c(cc23)OCCO4)cc1 [CBK287869] | 82.8 |
| O=C1CCCc2nccc(-c3ccc(Cl)cc3)c21 [CBK287870] | 82.9 |
| CC(=O)c1c(C)c2c(=O)n3c(nc2[nH]c1=O)CCC3 [CBK287872] | 93.6 |
| O=C1N=C2C=CC=CN2C(=O)C1Cc1ccccc1 (stereo not drawn) [CBK287874] | 110 |
| CCCCc1c(O)[nH]c2nc3ccccc3n2c1=O [CBK287875] | 98.1 |
| COc1ccc2c(c1)Cc1sc(NC(C)=O)nc1-2 [CBK287876] | 93.8 |
| COc1ccc(CNC(=O)c2nc(-c3ccccn3)no2)cc1 [CBK287877] | 90.3 |
| COc1ccc(Nc2nccc3c2nnn3C)cc1 [CBK287879] | 80.9 |
| N#Cc1c(N)nc2c(c1-c1cccnc1)CCCC2 [CBK287885] | 85.8 |
| c1ccc2c(c1)CCCN2c1ncnc2n[nH]cc12 [CBK287886] | 69.3 |
| Cn1c(=O)n(C)c2cc(-c3nc4ccccc4c(=O)[nH]3)ccc21 [CBK287887] | 98.5 |
| CCc1nnc2ccc(NCc3ccccc3)nn12 [CBK287888] | 110 |
| COc1cccc(C2CC(=O)Nc3n[nH]cc32)c1OC (stereo not drawn) [CBK287889] | 88.1 |
| COc1ccc(/N=c2/cc(C)[nH]c3ncnn23)cc1 [CBK287893] | 91.1 |
| CC(C)(C)C1=Nn2c(nnc2-c2n[nH]c3c2CCC3)SC1 [CBK287894] | 87.7 |
| Cc1ccc(Nc2nc3c(c(=O)[nH]2)CCCC3)cc1 [CBK287895] | 100 |
| Cc1nn(-c2ccc3nnc(C)n3n2)c2c1C(c1ccccc1F)CC(=O)N2 (stereo not drawn) [CBK287898] | 83.3 |
| O=C1N(c2ccc(Cl)cc2)Cc2nc(=O)[nH]n21 [CBK287899] | 91.6 |
| O=C(Nc1ccccc1)c1ccc(F)cc1-n1cnnn1 [CBK287903] | 111 |
| N#Cc1c2c(c(-c3ccccc3)[nH]c1=O)CCCC2 [CBK287905] | 91.6 |
| O=c1cc(O)c2c(=O)[nH]c(=O)n(-c3ccccc3)c2[nH]1 [CBK287907] | 88.2 |
| COc1ccc(C2=NNC(=O)C(c3ccc(OC)cc3)C2)cc1 (stereo not drawn) [CBK287908] | 99.7 |

| Structure (SMILES) | viability at 28.5 h, 10 µM [%] |
| --- | --- |
| COc1ccc(C2CC(=O)c3c(C)n[nH]c3C2)cc1 (stereo not drawn) [CBK287911] | 114 |
| CN(C)CCCn1cnc2c1c(=O)[nH]c(=O)n2C [CBK287913] | 92.2 |
| Cc1cc(C)nc(Nc2ncc(O)n2-c2ccccc2)n1 [CBK287914] | 93.5 |
| CCN(CC)CCNc1nc2c(=O)[nH]c(=O)n(C)c2[nH]1 [CBK287918] | 116 |
| Cc1[nH]nc2c1C(c1ccc(Cl)cc1)N(CCc1c[nH]c3ccccc13)C2=O (stereo not drawn) [CBK287919] | 114 |
| CC1=Nc2c(cnn2-c2ccccc2)C2=NCCCN12 [CBK287928] | 91.6 |
| Cc1c(C)n(Cc2cccnc2)c2ncn(C3CCCCCC3)c(=N)c12 [CBK287932] | 85.9 |
| OCCNc1ncnc2c1ncn2Cc1ccccc1 [CBK287933] | 106 |
| COc1cc(/C=C/c2cc(C(F)(F)F)[nH]c(=O)n2)c(Cl)cc1O [CBK287936] | 80 |
| CCCCC(=O)/N=C(\N)Nc1nc2ccccc2o1 [CBK287937] | 87.8 |
| Cc1cc(Cl)ccc1OCC(=O)Nc1nnc[nH]1 [CBK287940] | 86.3 |
| COc1cccc(C2=CC(c3ccccc3Cl)N3N=NNC3=N2)c1 (stereo not drawn) [CBK287943] | 84.4 |
| c1ccc(Oc2nc3ccccc3n3cnnc23)cc1 [CBK287945] | 91.9 |
| O=C(COc1ccccc1Cl)Nc1nnc[nH]1 [CBK287946] | 80.1 |
| CC(C)c1nc2c(c(=O)c3ccccc3n2C)c(=O)n1-c1ccccc1 [CBK287947] | 97.6 |
| CC1CCCN(c2ncnc3c2[nH]c2ccccc23)C1 (stereo not drawn) [CBK287948] | 106 |
| CCc1cccc(C)c1N(C(=O)Cn1c(=O)[nH]c2ccccc21)C(C)COC (stereo not drawn) [CBK287950] | 80.1 |
| CN1CCc2c(c(NCC3CCCO3)nc3[nH]nc(N)c23)C1 (stereo not drawn) [CBK287955] | 103 |
| Cc1cc(C)c2c3c(sc2n1)C(=O)N(C)CC(=O)N3 [CBK287959] | 83.8 |
| COc1ccccc1Nc1nc(C)cc(C)c1C(N)=O [CBK287960] | 82.7 |
| CCc1c(C)nc2c(-c3ccc(OC)c(OC)c3)cnn2c1O [CBK287962] | 87 |
| CC(C)c1nc(-c2cc3ccccc3nc2O)no1 [CBK287964] | 112 |

Same assay, conditions: human, hela cells, % viability, bulk resorufin, single well

| Structure (SMILES) | viability at 28.5 h, 10 µM [%] |
| --- | --- |
| CCC(=O)c1c(O)n(-c2ccccc2)c(=O)[nH]c1=O [CBK287862] | 96.8 |
